Consider 51 compounds from US7427608B2, “Protection against and treatment of hearing loss” (The Research Foundation of State University of New York, priority 2001, dated 2008).

Broadly, the inhibition is how much of the control response was suppressed. Lower therefore signals a weak effect. A word on the IC50: it is the point on the concentration scale where inhibition reaches its midpoint. Read a low IC50 as higher potency.

Assay [1] concerns the target T1, protein tyrosine phosphatase 1B (PTP-1B) (Homo sapiens, UniProt P18031).
T1 sequence (P18031 1-435): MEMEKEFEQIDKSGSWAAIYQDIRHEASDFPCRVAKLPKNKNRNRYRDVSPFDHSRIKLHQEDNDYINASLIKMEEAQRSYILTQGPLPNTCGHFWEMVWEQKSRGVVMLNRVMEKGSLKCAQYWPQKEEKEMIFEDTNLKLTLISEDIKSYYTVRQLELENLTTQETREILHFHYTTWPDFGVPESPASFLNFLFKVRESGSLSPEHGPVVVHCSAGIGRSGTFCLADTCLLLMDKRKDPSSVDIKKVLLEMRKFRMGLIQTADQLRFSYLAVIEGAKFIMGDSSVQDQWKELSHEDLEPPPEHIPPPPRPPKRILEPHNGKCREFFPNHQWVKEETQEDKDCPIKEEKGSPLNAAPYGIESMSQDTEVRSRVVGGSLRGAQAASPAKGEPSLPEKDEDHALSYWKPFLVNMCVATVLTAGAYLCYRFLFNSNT
Nature of the assay: Inhibition of PTP-1B. The settings on record: compound at 10 micromolar. In kind it is biochemical. An excerpt: (§1) Blanks for a particular enzyme indicate that inhibition was not found.

The target in assay [2] is p55 fyn (Homo sapiens, UniProt P06241). The experiment in a line: Inhibition of p55 fyn. To be noted: compound at 10 micromolar. It is filed as biochemical.
Sequence of p55 fyn (P06241 whole entry): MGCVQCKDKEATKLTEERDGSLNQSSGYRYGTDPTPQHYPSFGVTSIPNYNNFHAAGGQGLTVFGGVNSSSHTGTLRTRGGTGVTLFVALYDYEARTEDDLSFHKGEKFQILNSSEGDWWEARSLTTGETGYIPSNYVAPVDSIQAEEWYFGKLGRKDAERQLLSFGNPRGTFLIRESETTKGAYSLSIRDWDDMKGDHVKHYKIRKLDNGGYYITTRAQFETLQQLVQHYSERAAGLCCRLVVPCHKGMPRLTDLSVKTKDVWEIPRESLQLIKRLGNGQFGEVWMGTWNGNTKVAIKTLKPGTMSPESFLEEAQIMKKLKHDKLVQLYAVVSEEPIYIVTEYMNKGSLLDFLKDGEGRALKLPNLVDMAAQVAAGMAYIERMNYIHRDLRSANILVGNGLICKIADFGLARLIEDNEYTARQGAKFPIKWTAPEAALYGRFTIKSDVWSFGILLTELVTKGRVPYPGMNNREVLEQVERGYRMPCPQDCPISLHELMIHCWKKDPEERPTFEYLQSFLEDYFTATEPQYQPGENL
Description: as §1

Assay [3] deals with Epidermal Growth Factor Receptor Tyrosine Kinase (EGFRTK) (Homo sapiens, UniProt P00533). The experiment in a line: Inhibition of EGFRTK. In kind it is biochemical. To be noted: compound at 10 micromolar.
Sequence of Epidermal Growth Factor Receptor Tyrosine Kinase (EGFRTK) (P00533 25-1210): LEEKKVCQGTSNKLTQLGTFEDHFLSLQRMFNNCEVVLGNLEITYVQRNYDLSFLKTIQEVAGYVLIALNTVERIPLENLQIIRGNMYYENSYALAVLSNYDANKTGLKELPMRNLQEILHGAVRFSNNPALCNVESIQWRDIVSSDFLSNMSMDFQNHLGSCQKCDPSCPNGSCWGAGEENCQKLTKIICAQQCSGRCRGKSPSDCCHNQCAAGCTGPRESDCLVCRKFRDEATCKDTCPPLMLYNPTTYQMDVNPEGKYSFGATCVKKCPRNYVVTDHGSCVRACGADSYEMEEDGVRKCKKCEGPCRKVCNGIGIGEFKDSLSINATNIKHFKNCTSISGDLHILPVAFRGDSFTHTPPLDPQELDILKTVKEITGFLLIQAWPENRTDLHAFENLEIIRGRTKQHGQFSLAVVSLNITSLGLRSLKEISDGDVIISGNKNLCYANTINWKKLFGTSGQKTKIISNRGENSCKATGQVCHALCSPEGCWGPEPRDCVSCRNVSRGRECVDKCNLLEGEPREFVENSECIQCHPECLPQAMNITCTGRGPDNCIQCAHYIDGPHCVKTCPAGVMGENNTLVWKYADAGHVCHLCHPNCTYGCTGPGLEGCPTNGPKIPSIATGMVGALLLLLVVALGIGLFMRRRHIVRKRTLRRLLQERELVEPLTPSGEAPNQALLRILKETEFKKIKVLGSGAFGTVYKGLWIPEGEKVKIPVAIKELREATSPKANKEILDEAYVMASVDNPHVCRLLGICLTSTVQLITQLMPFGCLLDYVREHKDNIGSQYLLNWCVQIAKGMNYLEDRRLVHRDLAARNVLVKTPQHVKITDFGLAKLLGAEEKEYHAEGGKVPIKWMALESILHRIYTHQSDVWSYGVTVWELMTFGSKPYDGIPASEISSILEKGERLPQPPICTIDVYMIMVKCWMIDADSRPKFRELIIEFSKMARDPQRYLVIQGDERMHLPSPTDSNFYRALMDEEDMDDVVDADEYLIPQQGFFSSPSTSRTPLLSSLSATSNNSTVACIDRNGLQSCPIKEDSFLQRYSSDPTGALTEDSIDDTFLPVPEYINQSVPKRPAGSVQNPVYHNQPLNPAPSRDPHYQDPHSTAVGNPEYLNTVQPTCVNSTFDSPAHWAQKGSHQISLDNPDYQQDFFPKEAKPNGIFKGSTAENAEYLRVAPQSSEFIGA
Description: as §1

The subject of assay [4] is human lung cancer cell line H460. Nature of the assay: Inhibition of growth of human lung cancer cell line H460. In kind it is cell-based. To be noted: NCI-H460, 72 hours, total protein/well. An excerpt: The results are in Table 2, below.
The target in assay [5] is p56 lck (Homo sapiens, UniProt P06239). Nature of the assay: Inhibition of p56 lck. The settings on record: compound at 10 micromolar. In kind it is biochemical.
Sequence of p56 lck (P06239 whole entry, species assumed): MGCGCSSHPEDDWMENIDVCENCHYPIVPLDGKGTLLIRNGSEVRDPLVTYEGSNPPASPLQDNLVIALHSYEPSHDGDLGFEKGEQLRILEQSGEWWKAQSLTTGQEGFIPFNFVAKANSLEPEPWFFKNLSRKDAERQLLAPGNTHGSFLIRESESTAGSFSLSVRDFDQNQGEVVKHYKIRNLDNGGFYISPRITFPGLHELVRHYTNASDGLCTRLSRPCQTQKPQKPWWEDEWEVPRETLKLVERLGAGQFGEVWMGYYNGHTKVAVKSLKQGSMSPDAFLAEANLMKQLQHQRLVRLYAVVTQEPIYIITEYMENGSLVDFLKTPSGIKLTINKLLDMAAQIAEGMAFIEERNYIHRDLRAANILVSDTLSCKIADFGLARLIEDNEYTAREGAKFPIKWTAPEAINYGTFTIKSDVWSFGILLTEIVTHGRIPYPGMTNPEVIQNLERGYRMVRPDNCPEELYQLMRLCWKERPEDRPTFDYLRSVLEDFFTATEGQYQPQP
Description: as §1

As for `O=C(NCc1ccc(OCc2ccccc2)c(O)c1)c1cc2cc(F)ccc2[nH]1` [Compound 1jjjj], the inhibition at 10 µM in assay [1] is 15%.
For `O=C(NCc1ccc([N+](=O)[O-])cc1)c1cc2cc(F)ccc2[nH]1` [Compound 1mmmm], the inhibition at 10 µM in assay [2] is 29%.
As for `O=C(NCc1ccc(Cl)cc1)c1[nH]c2ccc(F)cc2c1-c1ccccc1` [Compound 2gg], the inhibition at 10 µM in assay [1] came out at 12%.
On the same count and under the same terms, the same measure for `O=C(NCc1cc(C(F)(F)F)cc(C(F)(F)F)c1)c1[nH]c2ccc(F)cc2c1-c1ccccc1` [Compound 2w]: 12%.
With `COc1cccc([C@H](C)NC(=O)c2cc3cc(F)ccc3[nH]2)c1` [Compound 1aa], the inhibition at 10 µM turned out to be 10% in assay [2] and 12% in assay [3].
In turn, `O=C(NCc1cc(F)cc(C(F)(F)F)c1)c1cc2cc(F)ccc2[nH]1` [Compound 1mmm] yielded an inhibition at 10 µM in assay [2] of 14%.
Compound `O=C(NCc1cc(O)cc(OCc2ccccc2)c1)c1cc2cc(F)ccc2[nH]1` [Compound 1dddd] came in with an inhibition at 10 µM in assay [1] of 16%.
For `O=C(NCCc1c[nH]c2ccccc12)c1cc2cc(F)ccc2[nH]1` [Compound 1u], the inhibition at 10 µM in assay [2] is 10%.
On to `O=C(N[C@@H](c1ccccc1)[C@@H](O)c1ccccc1)c1cc2cc(F)ccc2[nH]1` [Compound 1dd], for which the IC50 in assay [4] amounted to 33 ± 0.78 µM. This compound had an inhibition at 10 µM in assay [3] of 41%.
`CCCN(CCC)C(=O)c1cc2cc(F)ccc2[nH]1` [Compound 1g] showed an inhibition at 10 µM in assay [2] of 19%.
For the compound `CCCOc1ccc(CNC(=O)c2cc3cc(F)ccc3[nH]2)cc1O` [Compound 1nnnn], the results for the inhibition at 10 µM in assay [2] and in assay [3] were 11% and 17%, respectively.
For the compound `O=C(NCc1ccc(F)cc1)c1cc2cc(F)ccc2[nH]1` [Compound 1uuu], the inhibition at 10 µM worked out at 16% in assay [2] and 13% in assay [1].
The compound `Cc1cc(C)cc(NC(=O)c2cc3cc(F)ccc3[nH]2)c1` [Compound 1t] came in with an inhibition at 10 µM in assay [2] of 11%.
In the case of `O=C(NCC1(O)CCCCC1)c1[nH]c2ccc(F)cc2c1-c1ccccc1` [Compound 2b], the inhibition at 10 µM in assay [2] was 13%; in assay [3], 19%.
The compound `O=C(N[C@H](c1ccccc1)[C@H](O)c1ccccc1)c1cc2cc(F)ccc2[nH]1` [Compound 1cc] gave an IC50 in assay [4] of 30 ± 0.66 µM. Moreover, the inhibition at 10 µM in assay [3] was found to be 19%.
Turning to `COc1ccc(CNC(=O)c2cc3cc(F)ccc3[nH]2)cc1` [Compound 1ee], the inhibition at 10 µM in assay [3] turned out to be 16%.
For `COc1ccc(NC(=O)c2[nH]c3ccc(F)cc3c2-c2ccccc2)cc1CO` [Compound 2f], in assay [4], the IC50 was 13 ± 0.46 µM. Also, the inhibition at 10 µM in assay [2] is 11%; in assay [3], 18%.
On to `O=C(Nc1cccc(CO)c1)c1cc2cc(F)ccc2[nH]1` [Compound 1yyy], for which, in assay [4], the IC50 came to 104 ± 10 µM. The compound also had an inhibition at 10 µM in assay [3] of 11%.
Turning to `O=C(NCc1ccc(Cl)cc1)c1cc2cc(F)ccc2[nH]1` [Compound 1rrr], the inhibition at 10 µM in assay [2] turned out to be 15%.
Compound `Cc1cccc(Cl)c1CNC(=O)c1cc2cc(F)ccc2[nH]1` [Compound 1xx] showed an inhibition at 10 µM in assay [2] of 14%.
In turn, `O=C(Nc1ccccc1O)c1cc2cc(F)ccc2[nH]1` [Compound 1n] gave an inhibition at 10 µM in assay [5] of 12%.
Compound `CCCOc1ccc(NC(=O)c2[nH]c3ccc(F)cc3c2-c2ccccc2)cc1CO` [Compound 2d] displayed an inhibition at 10 µM in assay [3] of 23%.
In the case of `O=C(NCc1ccc([N+](=O)[O-])cc1)c1[nH]c2ccc(F)cc2c1-c1ccccc1` [Compound 2kk], testing at 10 µM in assay [2] gave an inhibition of 24%.
Consider `O=C(NCc1ccccc1)c1cc2cc(F)ccc2[nH]1` [Compound 1bb], for which, in assay [4], the IC50 stood at 82 ± 3.5 µM. For the same compound, the inhibition at 10 µM in assay [3] worked out at 19%.
In assay [4], `O=C(NCc1cccc(O)c1)c1[nH]c2ccc(F)cc2c1-c1ccccc1` [Compound 3q] yielded an IC50 of 30 ± 0.34 µM.
In turn, `O=C(Nc1ccc(CO)cc1)c1cc2cc(F)ccc2[nH]1` [Compound 1oo] registered an inhibition at 10 µM in assay [2] of 17%.
`O=C(c1cc2cc(F)ccc2[nH]1)N1CCOCC1` [Compound 1w] registered an inhibition at 10 µM in assay [2] of 10%.
With `O=C(NCc1cccc(I)c1)c1cc2cc(F)ccc2[nH]1` [Compound 1ff], the inhibition at 10 µM in assay [3] is 24%.
In turn, `COc1cc(CNC(=O)c2cc3cc(F)ccc3[nH]2)cc(OC)c1` [Compound 1hhhh] gave an inhibition at 10 µM in assay [1] of 17%.
Compound `O=C(NCc1ccccc1F)c1cc2cc(F)ccc2[nH]1` [Compound 1bbb] yielded an IC50 in assay [4] above 100 µM.
`O=C(NCc1cccc(F)c1)c1[nH]c2ccc(F)cc2c1-c1ccccc1` [Compound 2g] came in with an IC50 in assay [4] of 13 ± 0.56 µM.
`O=C(Nc1ccc(Oc2ccccc2)cc1)c1cc2cc(F)ccc2[nH]1` [Compound 1k] yielded an inhibition at 10 µM in assay [2] of 13%.
On to `COc1cc(CNC(=O)c2cc3cc(F)ccc3[nH]2)ccc1OCc1ccccc1` [Compound 1qqq], for which testing at 10 µM in assay [2] gave an inhibition of 11%.
`O=C(NCc1cccc(C(F)(F)F)c1)c1cc2cc(F)ccc2[nH]1` [Compound 1jj] displayed an inhibition at 10 µM in assay [2] of 18%.
On to `O=C(NCc1cccc(F)c1)c1cc2cc(F)ccc2[nH]1` [Compound 1z], for which, in assay [4], the IC50 was determined as 15 ± 1.6 µM. In assay [3], this compound came in with an inhibition at 10 µM of 26%.
`O=C(NCc1ccc(Br)cc1)c1cc2cc(F)ccc2[nH]1` [Compound 1kkkk]: in assay [3], 10 µM produced 30% inhibition.
Take `Cc1ccccc1CNC(=O)c1cc2cc(F)ccc2[nH]1` [Compound 1ffff]: 10 µM produced 12% inhibition in assay [3].
Regarding `O=C(NCc1ccc(F)cc1Cl)c1[nH]c2ccc(F)cc2c1-c1ccccc1` [Compound 2o], in assay [2], the inhibition at 10 µM amounted to 12%.
In assay [4], `COc1ccc(NC(=O)c2cc3cc(F)ccc3[nH]2)cc1CO` [Compound 1cccc] gave an IC50 above 100 µM. The inhibition at 10 µM was 19% in assay [3] and 20% in assay [1].
As to `O=C(NCc1ccccc1Cl)c1cc2cc(F)ccc2[nH]1` [Compound 1yy], the figures for the inhibition at 10 µM in assay [2] and in assay [1] were 12% and 10%, respectively.
In assay [1], `O=C(NCc1ccc(Cl)cc1Cl)c1cc2cc(F)ccc2[nH]1` [Compound 1ss] showed an inhibition at 10 µM of 12%.
Turning to `O=C(NCc1cc(F)cc(F)c1)c1[nH]c2ccc(F)cc2c1-c1ccccc1` [Compound 2y], in assay [3], the inhibition at 10 µM is 20%.
In assay [1], `O=C(NCc1cc(C(F)(F)F)ccc1F)c1cc2cc(F)ccc2[nH]1` [Compound 1aaa] came in with an inhibition at 10 µM of 12%.
Regarding `O=C(NCc1ccc(F)cc1C(F)(F)F)c1[nH]c2ccc(F)cc2c1-c1ccccc1` [Compound 2hh], the inhibition at 10 µM in assay [3] was determined as 12%.
In assay [1], `O=C(Nc1ccccc1CO)c1cc2cc(F)ccc2[nH]1` [Compound 1xxx] registered an inhibition at 10 µM of 12%.
For `O=C(NCCCCCCO)c1cc2cc(F)ccc2[nH]1` [Compound 1qqqq], the inhibition at 10 µM in assay [3] stood at 18%.
`O=C(NCc1cc(OCc2ccccc2)cc(OCc2ccccc2)c1)c1cc2cc(F)ccc2[nH]1` [Compound 1iiii] came in with an inhibition at 10 µM in assay [3] of 12%.
Take `O=C(NCc1ccc(O)c(O)c1)c1cc2cc(F)ccc2[nH]1` [Compound 1gggg]: the inhibition at 10 µM in assay [3] amounted to 25%.
`O=C(Nc1ccc(OCc2ccccc2)c(CO)c1)c1[nH]c2ccc(F)cc2c1-c1ccccc1` [Compound 2e] gave an inhibition at 10 µM in assay [3] of 10%.
As for `O=C(NCc1ccc(C(F)(F)F)cc1)c1[nH]c2ccc(F)cc2c1-c1ccccc1` [Compound 2j], at 10 µM the inhibition in assay [3] was 20%.
`O=C(NCc1cc(Br)ccc1F)c1[nH]c2ccc(F)cc2c1-c1ccccc1` [Compound 2ll] had an inhibition at 10 µM in assay [3] of 10%.
